According to ChEMBL document CHEMBL4184329, “Identification and Structure-Activity Relationship of HDAC6 Zinc-Finger Ubiquitin Binding Domain Inhibitors” (J Med Chem, 2018):

biological target: T1, Protein deacetylase HDAC6 (Homo sapiens, UniProt Q9UBN7); test: Displacement of N-terminal FITC-labeled RLRGG from N-terminal AviTag/C-terminal His6-tagged HDAC6 ZnF-UBD (unknown origin) expressed in Escherichia coli BL21 (DE3) after 10 mins by fluorescence polarization assay; details: not given
T1 sequence (Q9UBN7 whole entry): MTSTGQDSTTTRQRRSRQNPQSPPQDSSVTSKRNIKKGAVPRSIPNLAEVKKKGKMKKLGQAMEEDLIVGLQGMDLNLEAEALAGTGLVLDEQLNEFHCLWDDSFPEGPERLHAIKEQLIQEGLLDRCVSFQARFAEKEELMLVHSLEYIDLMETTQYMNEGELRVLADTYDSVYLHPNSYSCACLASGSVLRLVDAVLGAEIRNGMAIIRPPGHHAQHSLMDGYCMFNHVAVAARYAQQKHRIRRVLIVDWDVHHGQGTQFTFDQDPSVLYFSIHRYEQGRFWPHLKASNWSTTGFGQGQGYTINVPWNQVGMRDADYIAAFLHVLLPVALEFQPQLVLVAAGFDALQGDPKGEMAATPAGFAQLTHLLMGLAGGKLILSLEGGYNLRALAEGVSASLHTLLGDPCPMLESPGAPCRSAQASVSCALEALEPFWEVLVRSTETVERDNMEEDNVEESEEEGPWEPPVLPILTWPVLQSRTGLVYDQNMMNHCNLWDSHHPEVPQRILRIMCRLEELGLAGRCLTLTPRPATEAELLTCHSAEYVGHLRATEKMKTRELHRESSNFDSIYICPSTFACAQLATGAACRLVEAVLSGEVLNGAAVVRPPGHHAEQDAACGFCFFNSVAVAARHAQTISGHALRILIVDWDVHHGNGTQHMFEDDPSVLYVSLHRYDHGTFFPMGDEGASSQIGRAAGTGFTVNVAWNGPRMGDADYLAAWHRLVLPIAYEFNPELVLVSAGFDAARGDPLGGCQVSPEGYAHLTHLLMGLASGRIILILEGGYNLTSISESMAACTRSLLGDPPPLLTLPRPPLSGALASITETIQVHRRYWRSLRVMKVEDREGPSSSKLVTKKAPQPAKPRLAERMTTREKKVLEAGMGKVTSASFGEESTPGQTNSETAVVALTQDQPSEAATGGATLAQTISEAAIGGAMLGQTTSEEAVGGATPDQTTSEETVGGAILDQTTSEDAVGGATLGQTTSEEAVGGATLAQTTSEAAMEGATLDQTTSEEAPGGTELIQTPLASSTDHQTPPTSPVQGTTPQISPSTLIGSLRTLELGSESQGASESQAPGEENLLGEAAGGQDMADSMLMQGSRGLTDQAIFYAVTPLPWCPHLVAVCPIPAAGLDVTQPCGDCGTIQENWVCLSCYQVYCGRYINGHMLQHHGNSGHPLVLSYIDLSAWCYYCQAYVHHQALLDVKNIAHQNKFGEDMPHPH

Row | IC50 | Structure (SMILES)
1 | Not Active | O=C(O)CCCc1nc2ccccc2s1
2 | Not Active | COC(CC(=O)O)c1nc2ccccc2s1 (stereo unspecified)
3 | Not Active | O=C(O)CCc1nc2ccccc2o1
4 | Not Active | O=C(O)C(O)C(O)c1nc2ccccc2s1 (stereo unspecified)
5 | Not Active | CC(Cc1nc2ccccc2s1)C(=O)O (stereo unspecified)
6 | Not Active | COC(Cc1nc2ccccc2s1)C(=O)O (stereo unspecified)
7 | Not Active | O=C(O)CCc1cc2ccccc2o1
8 | Not Active | O=C(O)CCc1nc2ccccc2[nH]1 [PROCODAZOLE]

Further lines, the molecule ahead of its results:

Row | Structure (SMILES) | IC50
9 | COC(=O)CCc1nc2ccccc2nc1OC | Not Active
10 | CN(C(=O)Cn1c(CS(C)(=O)=O)nc2ccccc21)c1ccccc1 | Not Active
11 | COc1nccnc1CCC(=O)O | Not Active
12 | COc1nc2ccccc2nc1CCC(N)=O | Not Active
13 | CS(=O)(=O)Cc1nc2ccccc2n1CC(=O)Nc1cccc(NC(N)=O)c1 | Not Active
14 | CNC(=O)CCc1nc2ccccc2nc1OC | Not Active
15 | O=C(O)Cc1ccc2ccccc2n1 | Not Active

same assay, conditions: read-out: IC50

Row | IC50 [µM] | Structure (SMILES)
16 | 45 | COc1nc2ccccc2nc1CCC(=O)O
17 | 230 | O=C(O)CCc1nc(O)c2ccccc2n1
18 | 65 | Cn1c(=O)c(CCC(=O)O)nc2ccccc21
19 | 180 | O=C(O)CCc1nc2ccccc2s1
20 | 100 | Cn1c(CCC(=O)O)nc2ccccc21
21 | 390 | O=C(O)Cc1nc2ccccc2s1
22 | > 720 | O=C(O)CCc1ccc2ccccc2n1

Continued, molecule first:

Row | Structure (SMILES) | IC50 [µM]
23 | O=C(O)Cn1cnc2ccccc2c1=O | 320
24 | O=C(O)CCc1nc2cc(Cl)ccc2n(Cc2ccccc2)c1=O | 150
25 | O=C(O)Cn1cnc2c(oc3ccccc32)c1=O | 51
26 | O=C(O)Cn1cnc2ccc(Br)cc2c1=O | 200
27 | O=C(O)CCc1nc2ccccc2c2nc(=O)c(Cc3ccccc3)nn12 | 25
28 | O=C(O)Cn1nc(O)c2ccccc2c1=O | 200
29 | COc1cc2ncn(CCC(=O)O)c(=O)c2cc1OC | 95
30 | O=C(O)CCn1nnc2ccccc2c1=O | 240
31 | Cc1cc(C)c2c(n1)sc1c(=O)n(CC(=O)O)cnc12 | 190
32 | NC(=O)c1cc(-n2c(CCC(=O)O)nc3ccccc32)cs1 | 640
33 | N#Cc1c2n(c3c(=O)n(CC(=O)O)cnc13)CCCC2 | 77
34 | O=C(O)CCc1nc2cc3nc(CCC(=O)O)sc3cc2s1 | 5.1
35 | COc1cc2ncn(CC(=O)O)c(=O)c2cc1OC | 44

biological target: T1, Protein deacetylase HDAC6; test: Binding affinity to biotinylated HDAC6 ZnF-UBD (unknown origin) by surface plasmon resonance method; details: not given

Row | Kd [µM] | Structure (SMILES)
36 | 8 | O=C(O)CCc1nc2cc3nc(CCC(=O)O)sc3cc2s1
